Measured values reported in article PMC9820167, “Design and Synthesis of Conformationally Flexible Scaffold as Bitopic Ligands for Potent D3-Selective Antagonists” (International Journal of Molecular Sciences, 2022).
Like-named read-outs stand apart in the source and are kept apart here.

Experiments:
[1] = molecular target: T1, human D2 receptors (Homo sapiens, UniProt P14416); assay: Radioligand binding assay with [125I]IABN, D2 receptor; settings: [125I]IABN, D2 receptors expressed in HEK cells; mean ± SEM, three experiments; HCl salts; read-out: Ki ± SEM (nM) D2
T1 construct: expressed in transfected cells; host or cells: HEK293
Procedure: Two different assays were used to evaluate the properties of the analogs described above. The receptor binding affinity was measured by radioligand binding assays using [^125I]IABN with D2 or D3 receptors highly expressed HEK293 cells. The functional activity of the analogs was determined using a β-arrestin recruitment assay. […] The results of the antagonist mode assay are reported as IC50 values.
(§1) Ki values for D2 and D3 receptors were measured using [^125I]IABN in human D2 and D3 receptors expressed in HEK cells, respectively. A filtration binding assay was used to characterize membrane-associated receptor binding properties. The details for the procedures were described in the literature.

[2] = molecular target: T2, human D3 receptors (Homo sapiens, UniProt P35462); assay: Radioligand binding assay with [125I]IABN, D3 receptor; set-up: expressed in transfected cells; host or cells: HEK293; settings: for Ki: [125I]IABN, D3 receptors expressed in HEK cells, mean ± SEM, three experiments, HCl salts, read-out: Ki ± SEM (nM) D3; for D2/D3: selectivity ratio of Ki D2 / Ki D3 (fold)
Procedure: (§2) Two different assays were used to evaluate the properties of the analogs described above. The receptor binding affinity was measured by radioligand binding assays using [^125I]IABN with D2 or D3 receptors highly expressed HEK293 cells. The functional activity of the analogs was determined using a β-arrestin recruitment assay. The assay was initially conducted in agonist binding mode to confirm that they function as antagonists at the D3 receptor. Once this efficacy was confirmed, the assay was conducted in antagonist mode to determine the ability of the antagonist to compete with dopamine at the D3 receptor. The results of the antagonist mode assay are reported as IC50 values.
as §1

[3] = molecular target: T2, human D3 receptors; assay: β-arrestin recruitment assay (antagonist mode, competition with dopamine); format: cell-based; set-up: expressed in transfected cells; settings: for Emax: percentage of the maximum inhibition of dopamine at EC80 concentration, read-out: Imax (% Control); for IC50: potency for D3 receptors, CHO-K1 cells, vs 30 nM (EC80) dopamine, mean ± SD, three experiments, read-out: IC50
Procedure: as §2
CHO-K1 cells which were overexpressed human D3 receptors were cultured in assaycomplete^TM cell culture kit 107. Cells were seeded at a density of 25,000 cells per well of 96-well plate, and incubated at 5% CO2, 37 °C. Two days later, test compounds were dissolved in DMSO, and diluted with 11-point series in phosphate-buffered saline (PBS). Prepared compounds were added to the cells, and it was incubated for 30 min at 5% CO2, 37 °C. Then, cells were treated with 30 nM (EC80) of dopamine, and the plate was incubated another 90 min. PathHunter^TM detection reagent was added to each well, and then plate was incubated for 80 min at RT in the dark. The chemiluminescent signal was measured by PerkinElmer Enspire plate reader (PerkinElmer, Boston, MA). Data were analyzed by Prism followed by non-linear regression.

[4] = molecular target: D2 receptors; settings: cited from earlier work

T2 sequence (P35462 whole entry): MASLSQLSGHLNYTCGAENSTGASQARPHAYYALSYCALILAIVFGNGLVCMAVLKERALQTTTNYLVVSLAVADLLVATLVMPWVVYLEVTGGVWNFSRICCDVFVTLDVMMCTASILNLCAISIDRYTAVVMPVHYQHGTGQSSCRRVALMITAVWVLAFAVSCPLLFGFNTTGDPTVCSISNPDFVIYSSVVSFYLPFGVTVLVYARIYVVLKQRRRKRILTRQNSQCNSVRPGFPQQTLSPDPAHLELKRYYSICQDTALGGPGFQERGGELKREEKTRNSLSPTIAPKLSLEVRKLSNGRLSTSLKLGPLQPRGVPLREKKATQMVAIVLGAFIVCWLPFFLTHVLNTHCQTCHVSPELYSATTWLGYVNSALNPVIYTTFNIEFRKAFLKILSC
T1 sequence (P14416 whole entry): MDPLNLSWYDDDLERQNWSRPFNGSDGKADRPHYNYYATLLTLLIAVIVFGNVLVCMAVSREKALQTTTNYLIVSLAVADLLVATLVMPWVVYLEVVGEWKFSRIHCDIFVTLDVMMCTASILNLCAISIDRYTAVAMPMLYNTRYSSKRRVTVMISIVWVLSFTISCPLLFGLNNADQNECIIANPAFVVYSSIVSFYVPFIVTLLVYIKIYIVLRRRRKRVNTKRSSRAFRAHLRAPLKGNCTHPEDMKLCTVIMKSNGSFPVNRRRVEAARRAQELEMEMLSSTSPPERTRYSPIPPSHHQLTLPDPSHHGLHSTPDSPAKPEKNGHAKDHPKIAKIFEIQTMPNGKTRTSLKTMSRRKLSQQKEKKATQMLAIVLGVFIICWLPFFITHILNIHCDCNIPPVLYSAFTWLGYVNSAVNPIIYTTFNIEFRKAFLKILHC

Row | Compound | Ki [1] [nM] | Ki [2] [nM] | D2/D3 [2] | Emax [3] [%] | IC50 [3] [nM] | Ki ([4]; read-out: Ki for D2/D3 receptors (D2)) [nM] | Ki ([4]; read-out: Ki D2) [nM]
1 | CCN(CCCCN(C)C)CCNC(=O)c1cc(Br)cc(OC)c1OC [6c, 5-Bromo-N-(2-((4-(dimethylamino)butyl)(ethyl)amino)ethyl)-2,3-dimethoxybenzamide] | 5420 ± 1040 | 1630 ± 165 | 3.3 | 98 ± 5.6 | > 1000 | – | –
2 | CCN1CCC[C@H]1CNC(=O)c1cc(Br)cc(OC)c1OC [[^11C]FLB457, FLB457] | – | – | – | – | – | 0.02 | –
3 | CCN(CCCCSc1nnc(-c2ccccc2)n1C)CCNC(=O)c1cc(Br)cc(OC)c1OC [11a, 5-Bromo-N-(2-(ethyl(4-((4-methyl-5-phenyl-4H-1,2,4-triazol-3-yl)thio)butyl)amino)ethyl)-2,3-dimethoxybenzamide] | 342 ± 23 | 125 ± 2 | 2.7 | – | – | – | –
4 | CCN(CCCNC(=O)c1ccnc2ccccc12)CCNC(=O)c1cc(Br)cc(OC)c1OC [21b, N-(3-((2-(5-Bromo-2,3-dimethoxybenzamido)ethyl)(ethyl)amino)propyl)quinoline-4-carboxamide] | – | 13.2 ± 0.5 | 39.8 | 75.2 ± 4.8 | 19.6 ± 23.7 | – | –
5 | CCN(CCCCCSc1nnc(-c2ccccc2)n1C)CCNC(=O)c1cc(Br)cc(OC)c1OC [11b, 5-Bromo-N-(2-(ethyl(5-((4-methyl-5-phenyl-4H-1,2,4-triazol-3-yl)thio)pentyl)amino)ethyl)-2,3-dimethoxybenzamide] | 89.7 ± 3.6 | 22.2 ± 1.8 | 4.6 | – | – | – | –
6 | CCN(CCCNC(=O)c1ccncc1)CCNC(=O)c1cc(Br)cc(OC)c1OC [21f, N-(3-((2-(5-Bromo-2,3-dimethoxybenzamido)ethyl)(ethyl)amino)propyl)isonicotinamide] | 327 ± 32 | 6.1 ± 0.6 | 53.7 | 85.7 ± 13.1 | 2.7 ± 0.6 | – | –
7 | CCN(CCCCNC(=O)c1ccc(-c2cccs2)cc1)CCNC(=O)c1cc(Br)cc(OC)c1OC [9b, 5-Bromo-N-(2-(ethyl(4-(4-(thiophen-2-yl)benzamido)butyl)amino)ethyl)-2,3-dimethoxybenzamide] | 103 ± 14 | 8 ± 0.8 | 12.9 | 70.8 ± 7.3 | 104 ± 136 | – | –
8 | CCN(CCCCCN(C)C)CCNC(=O)c1cc(Br)cc(OC)c1OC [6d, 5-Bromo-N-(2-((5-(dimethylamino)pentyl)(ethyl)amino)ethyl)-2,3-dimethoxybenzamide] | 449 ± 90 | 141 ± 26 | 3.2 | 94 ± 6.4 | 152 ± 185 | – | –
9 | C=CCN1CCC[C@H]1CNC(=O)c1cc(CCCF)cc(OC)c1OC [fallypride] | – | – | – | – | – | – | 0.02
10 | CCN(CCCCCN(C)C)CCNC(=O)c1cc(CCCF)cc(OC)c1OC [6b, N-(2-((5-(Dimethylamino)pentyl)(ethyl)amino)ethyl)-5-(3-fluoropropyl)-2,3-dimethoxybenzamide] | 2810 ± 571 | 1240 ± 438 | 2.3 | 98.4 ± 2.9 | 430 ± 467 | – | –
11 | COc1cc(Br)cc(C(=O)NCCN(CCCNC(=O)c2ccc(-c3cccs3)cc2)Cc2ccc(F)cc2)c1OC [20c, 5-Bromo-N-(2-((4-fluorobenzyl)(3-(4-(thiophen-2-yl)benzamido)propyl)amino)ethyl)-2,3-dimethoxybenzamide] | 574 ± 170 | 299 ± 101 | 1.9 | – | – | – | –
12 | C=CCN(CCCNC(=O)c1ccc(-c2cccs2)cc1)CCNC(=O)c1cc(Br)cc(OC)c1OC [20b, N-(2-(Allyl(3-(4-(thiophen-2-yl)benzamido)propyl)amino)ethyl)-5-bromo-2,3-dimethoxybenzamide] | 243 ± 15 | 5.8 ± 1 | 46.7 | 101 ± 7.9 | 51.6 ± 40.8 | – | –
13 | CCN(CCCCN(C)C)CCNC(=O)c1cc(CCCF)cc(OC)c1OC [6a, N-(2-((4-(Dimethylamino)butyl)(ethyl)amino)ethyl)-5-(3-fluoropropyl)-2,3-dimethoxybenzamide] | 4560 ± 2450 | 1760 ± 942 | 2.6 | 92.7 ± 5.4 | > 1000 | – | –
14 | CCN(CCCNC(=O)c1cccc(N(C)C)c1)CCNC(=O)c1cc(Br)cc(OC)c1OC [21h, 5-Bromo-N-(2-((3-(3-(dimethylamino)benzamido)propyl)(ethyl)amino)ethyl)-2,3-dimethoxybenzamide] | 248 ± 19 | 11.2 ± 1.4 | 22.1 | 73.8 ± 14.9 | 4.1 ± 2.1 | – | –
15 | CCN(C)CCCNC(=O)c1ccc(-c2cccs2)cc1 [compound 14, N-(3-(Ethyl(methyl)amino)propyl)-4-(thiophen-2-yl)benzamide] | > 1000 | > 1000 | – | – | – | – | –
16 | CCN(C)CCNC(=O)c1cc(Br)cc(OC)c1OC [compound 12, 5-Bromo-N-(2-(ethyl(methyl)amino)ethyl)-2,3-dimethoxybenzamide] | 89.2 ± 5.6 | 21.8 ± 5.1 | – | – | – | – | –
